{"source": "patent US5591821A", "about": "(priority 1993, dated 1997)", "target": "GVIA high affinity site, the N-type Ca^2+ channel (Rattus norvegicus, UniProt Q02294)", "sequence (Q02294 whole entry, looked up)": "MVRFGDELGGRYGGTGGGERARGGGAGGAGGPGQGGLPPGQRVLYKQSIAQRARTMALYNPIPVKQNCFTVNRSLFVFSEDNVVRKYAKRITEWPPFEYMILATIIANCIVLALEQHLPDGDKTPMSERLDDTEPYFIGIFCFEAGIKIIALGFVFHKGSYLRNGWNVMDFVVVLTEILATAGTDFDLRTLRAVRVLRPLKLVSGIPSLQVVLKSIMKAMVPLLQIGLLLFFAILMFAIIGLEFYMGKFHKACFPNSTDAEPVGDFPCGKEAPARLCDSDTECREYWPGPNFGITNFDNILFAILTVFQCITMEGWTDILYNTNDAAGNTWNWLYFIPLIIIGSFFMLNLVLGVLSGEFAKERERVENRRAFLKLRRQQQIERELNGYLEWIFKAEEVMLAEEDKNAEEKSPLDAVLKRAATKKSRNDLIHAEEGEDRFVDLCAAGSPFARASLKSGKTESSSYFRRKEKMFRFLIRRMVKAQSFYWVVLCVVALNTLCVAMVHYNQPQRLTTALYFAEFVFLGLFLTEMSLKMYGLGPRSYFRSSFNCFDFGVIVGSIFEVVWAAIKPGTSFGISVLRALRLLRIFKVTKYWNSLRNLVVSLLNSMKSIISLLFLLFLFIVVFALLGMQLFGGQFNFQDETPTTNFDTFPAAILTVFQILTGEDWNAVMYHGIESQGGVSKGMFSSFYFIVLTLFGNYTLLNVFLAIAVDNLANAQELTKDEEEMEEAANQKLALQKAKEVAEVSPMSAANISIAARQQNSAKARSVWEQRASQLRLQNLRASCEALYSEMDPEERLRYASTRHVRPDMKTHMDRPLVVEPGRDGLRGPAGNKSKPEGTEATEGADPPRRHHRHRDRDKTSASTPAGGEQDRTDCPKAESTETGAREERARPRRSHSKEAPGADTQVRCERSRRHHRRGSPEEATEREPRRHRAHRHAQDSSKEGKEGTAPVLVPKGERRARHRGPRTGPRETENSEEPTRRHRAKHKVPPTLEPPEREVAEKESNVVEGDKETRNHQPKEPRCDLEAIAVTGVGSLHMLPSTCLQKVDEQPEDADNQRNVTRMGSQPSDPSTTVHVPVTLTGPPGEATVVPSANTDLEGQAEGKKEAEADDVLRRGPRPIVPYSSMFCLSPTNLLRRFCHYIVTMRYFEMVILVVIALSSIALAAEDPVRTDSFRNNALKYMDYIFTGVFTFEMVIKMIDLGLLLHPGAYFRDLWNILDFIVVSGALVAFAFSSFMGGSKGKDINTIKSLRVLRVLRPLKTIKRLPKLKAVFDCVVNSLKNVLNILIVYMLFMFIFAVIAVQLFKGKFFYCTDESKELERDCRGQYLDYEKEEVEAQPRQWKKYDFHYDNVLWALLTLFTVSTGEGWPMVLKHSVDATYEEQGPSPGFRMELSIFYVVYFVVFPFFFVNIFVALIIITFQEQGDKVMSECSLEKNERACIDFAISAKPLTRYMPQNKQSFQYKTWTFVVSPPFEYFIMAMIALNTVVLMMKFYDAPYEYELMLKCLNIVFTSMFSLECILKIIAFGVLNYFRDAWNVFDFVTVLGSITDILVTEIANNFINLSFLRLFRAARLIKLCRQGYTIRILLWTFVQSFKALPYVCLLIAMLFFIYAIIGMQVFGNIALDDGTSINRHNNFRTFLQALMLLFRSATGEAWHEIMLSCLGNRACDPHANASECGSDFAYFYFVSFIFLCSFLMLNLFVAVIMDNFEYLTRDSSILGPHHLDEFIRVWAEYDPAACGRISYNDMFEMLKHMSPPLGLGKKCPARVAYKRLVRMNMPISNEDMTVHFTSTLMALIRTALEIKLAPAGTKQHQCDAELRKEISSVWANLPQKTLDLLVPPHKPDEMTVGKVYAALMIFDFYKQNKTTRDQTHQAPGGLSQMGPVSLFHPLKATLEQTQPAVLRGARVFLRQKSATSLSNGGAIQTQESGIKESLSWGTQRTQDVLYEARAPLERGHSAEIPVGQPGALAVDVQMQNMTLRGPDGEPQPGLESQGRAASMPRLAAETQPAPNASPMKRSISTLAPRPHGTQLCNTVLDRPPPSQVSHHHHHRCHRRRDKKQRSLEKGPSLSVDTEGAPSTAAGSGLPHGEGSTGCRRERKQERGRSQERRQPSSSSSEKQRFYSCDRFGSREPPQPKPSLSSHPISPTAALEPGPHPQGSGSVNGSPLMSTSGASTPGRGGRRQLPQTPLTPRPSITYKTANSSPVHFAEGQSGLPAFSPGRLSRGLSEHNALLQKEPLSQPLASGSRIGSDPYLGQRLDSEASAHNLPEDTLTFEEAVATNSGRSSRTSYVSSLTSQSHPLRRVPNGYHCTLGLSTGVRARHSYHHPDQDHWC", "type": "binding", "data": [{"substance": "ω-agatoxin IVA", "values": [{"measurement": "Competition for / displacement of 125I-GVIA binding", "result": "did not"}]}]}
